# Data published in patent US20230159489A1, “PHD INHIBITOR COMPOUNDS, COMPOSITIONS, AND USE” (Akebia Therapeutics, Inc., priority 2020, published 2023).
# What was measured:
# full-length human PHD3 = molecular target: T1, full-length human PHD3 (Homo sapiens, UniProt Q9H6Z9); test: TR-FRET assay, enzymatic IC50 against PHD3; assay type: biochemical; further: 35 nM PHD3
# T1 construct: 6-His (N); purchased Active Motif 81033; host or cells: E. coli
# Text: Recombinant human PHD3 protein (molecular weight 31.1 kDa) was purchased from Active Motif (Carlsbad, Calif., USA). It was expressed in E. coli as the full-length protein (NCBI accession number NP_071356.1) with an N-terminal 6-His tag (catalog #81033, Lot #24417001).
# full-length human PHD1 = molecular target: T2, full-length human PHD1 (Homo sapiens, UniProt Q96KS0); test: TR-FRET assay, enzymatic IC50 against PHD1; assay type: biochemical; further: 15 nM PHD1
# T2 construct: FLAG (N); purchased Active Motif 81064; host or cells: baculovirus expression system
# T2 sequence (Q96KS0 whole entry): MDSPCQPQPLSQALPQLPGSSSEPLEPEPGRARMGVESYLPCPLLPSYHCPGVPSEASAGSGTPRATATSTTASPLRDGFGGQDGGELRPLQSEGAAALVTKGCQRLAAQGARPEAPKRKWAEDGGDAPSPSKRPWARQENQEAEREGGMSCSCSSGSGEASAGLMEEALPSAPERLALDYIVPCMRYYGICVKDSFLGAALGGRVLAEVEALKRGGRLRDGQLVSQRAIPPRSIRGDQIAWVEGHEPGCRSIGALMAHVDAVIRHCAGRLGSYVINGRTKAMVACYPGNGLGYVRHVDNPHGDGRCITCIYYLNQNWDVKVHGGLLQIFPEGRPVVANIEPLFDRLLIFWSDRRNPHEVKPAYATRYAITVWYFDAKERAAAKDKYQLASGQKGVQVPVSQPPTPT
# Text: PHD1 was expressed in a baculovirus expression system as the full-length protein (NCBI accession number NP_542770.2) with an N-terminal FLAG tag (molecular weight 44.9 kDa).
# full-length human PHD2 = full-length human PHD2 (Homo sapiens, UniProt Q9GZT9); test: TR-FRET assay, enzymatic IC50 against PHD2
# full-length human PHD2, sequence (Q9GZT9 whole entry): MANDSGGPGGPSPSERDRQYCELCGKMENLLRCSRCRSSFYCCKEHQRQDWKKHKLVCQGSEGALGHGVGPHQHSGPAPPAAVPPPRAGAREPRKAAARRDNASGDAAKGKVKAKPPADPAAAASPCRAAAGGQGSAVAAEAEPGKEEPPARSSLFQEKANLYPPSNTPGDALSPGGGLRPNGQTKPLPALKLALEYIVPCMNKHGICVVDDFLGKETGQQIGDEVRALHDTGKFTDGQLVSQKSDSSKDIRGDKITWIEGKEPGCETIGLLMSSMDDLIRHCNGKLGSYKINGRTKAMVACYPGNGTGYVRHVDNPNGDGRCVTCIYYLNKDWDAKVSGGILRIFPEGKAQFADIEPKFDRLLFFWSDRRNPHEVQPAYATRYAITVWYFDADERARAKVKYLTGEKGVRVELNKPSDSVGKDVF
# T1 sequence (Q9H6Z9 whole entry): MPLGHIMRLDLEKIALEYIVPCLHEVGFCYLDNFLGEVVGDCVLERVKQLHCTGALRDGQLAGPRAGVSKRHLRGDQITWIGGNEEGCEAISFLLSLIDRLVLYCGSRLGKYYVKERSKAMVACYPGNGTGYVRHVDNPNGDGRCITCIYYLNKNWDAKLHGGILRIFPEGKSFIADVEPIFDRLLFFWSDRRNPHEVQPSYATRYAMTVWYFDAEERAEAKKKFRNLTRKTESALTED
Compound,IC50 (full-length human PHD3),IC50 (full-length human PHD1),IC50 (full-length human PHD2)
"Cc1cc(C#N)ccc1-c1c(C)nn(-c2ccc(S(C)(=O)=O)cn2)c1O [Compound 2, 4-(5-hydroxy-3-methyl-1-(5-(methylsulfonyl)pyridin-2-yl)-1H-pyrazol-4-yl)-3-methylbenzonitrile]",< 100 nM,< 100 nM,< 100 nM
"CCc1nn(-c2ccc(S(C)(=O)=O)cn2)c(O)c1-c1ccc(C#N)cc1 [Compound 4, 4-(3-ethyl-5-hydroxy-1-(5-(methylsulfonyl)pyridin-2-yl)-1H-pyrazol-4-yl)benzonitrile]",1000 to 10000 nM,< 100 nM,< 100 nM
"CS(=O)(=O)c1ccc(-n2nc(C3CC3)c(-c3ccc(C#N)cc3)c2O)nc1 [Compound 5, 4-(3-cyclopropyl-5-hydroxy-1-(5-(methylsulfonyl)pyridin-2-yl)-1H-pyrazol-4-yl) benzonitrile]",> 10000 nM,100 to 1000 nM,1000 to 10000 nM
"Cc1nn(-c2ccc(NS(C)(=O)=O)cn2)c(O)c1-c1ccc(C#N)cc1 [Compound 6, N-(6-(4-(4-cyanophenyl)-5-hydroxy-3-methyl-1H-pyrazol-1-yl)pyridin-3-yl) methanesulfonamide]",< 100 nM,< 100 nM,< 100 nM
"Cc1nn(-c2ccc(N3CCCC3=O)cn2)c(O)c1-c1ccc(C#N)cc1 [Compound 7, 4-(5-hydroxy-3-methyl-1-(5-(2-oxopyrrolidin-1-yl)pyridin-2-yl)-1H-pyrazol-4-yl)benzonitrile]",100 to 1000 nM,< 100 nM,< 100 nM
"CNS(=O)(=O)Nc1ccc(-n2nc(C)c(-c3ccc(C#N)cc3)c2O)nc1 [Compound 51, N-(6-(4-(4-cyanophenyl)-5-hydroxy-3-methyl-1H-pyrazol-1-yl)pyridin-3-yl)-N′-methylsulfamide]",,< 100 nM,< 100 nM
"Cc1nn(-c2cc(C3CC3)c(S(C)(=O)=O)cn2)c(O)c1-c1ccc(C#N)cc1 [Compound 53, 4-(1-(4-cyclopropyl-5-(methylsulfonyl)pyridin-2-yl)-5-hydroxy-3-methyl-1H-pyrazol-4-yl)benzonitrile]",,< 100 nM,< 100 nM
"Cc1nn(-c2ccc(-c3ncco3)cn2)c(O)c1-c1ccc(C#N)cc1 [Compound 59, 4-(5-Hydroxy-3-methyl-1-(5-(oxazol-2-yl)pyridin-2-yl)-1H-pyrazol-4-yl)benzonitrile]",,< 100 nM,< 100 nM
"Cc1nn(-c2ccc(-c3nccs3)cn2)c(O)c1-c1ccc(C#N)cc1 [Compound 60, 4-(5-Hydroxy-3-methyl-1-(5-(thiazol-2-yl)pyridin-2-yl)-1H-pyrazol-4-yl)benzonitrile]",,< 100 nM,100 to 1000 nM
"Cc1nn(-c2ccc(-c3ncc(-c4ccccc4)s3)cn2)c(O)c1-c1ccc(C#N)cc1 [Compound 61, 4-(5-Hydroxy-3-methyl-1-(5-(5-phenylthiazol-2-yl)pyridin-2-yl)-1H-pyrazol-4-yl)benzonitrile]",,< 100 nM,> 10000 nM
"Cc1nn(-c2ccc(-c3nc(-c4ccccc4)cs3)cn2)c(O)c1-c1ccc(C#N)cc1 [Compound 62, 4-(5-Hydroxy-3-methyl-1-(5-(4-phenylthiazol-2-yl)pyridin-2-yl)-1H-pyrazol-4-yl)benzonitrile]",,100 to 1000 nM,> 10000 nM
"Cc1nn(-c2ccc(-n3cc(-c4ccccc4)cn3)cn2)c(O)c1-c1ccc(C#N)cc1 [Compound 64, 4-(5-Hydroxy-3-methyl-1-(5-(4-phenyl-1H-pyrazol-1-yl)pyridin-2-yl)-1H-pyrazol-4-yl)benzonitrile]",,< 100 nM,100 to 1000 nM
"Cc1nn(-c2ccc([S@@](=N)(=O)C3CC3)cn2)c(O)c1-c1ccc(Cl)cc1 [Compound 65, (S)-(6-(4-(4-chlorophenyl)-5-hydroxy-3-methyl-1H-pyrazol-1-yl)pyridin-3-yl)(cyclopropyl)(imino)-λ^6-sulfanone]",,< 100 nM,< 100 nM
"Cc1nn(-c2ccc([S@](=N)(=O)C3CC3)cn2)c(O)c1-c1ccc(Cl)cc1 [Compound 66, (R)-(6-(4-(4-chlorophenyl)-5-hydroxy-3-methyl-1H-pyrazol-1-yl)pyridin-3-yl)(cyclopropyl)(imino)-λ^6-sulfanone]",,< 100 nM,< 100 nM
"Cc1cc(-n2nc(C)c(-c3ccc(C#N)cc3)c2O)ncc1S(=O)(=O)Nc1ccccc1 [Compound 70, 6-(4-(4-cyanophenyl)-5-hydroxy-3-methyl-1H-pyrazol-1-yl)-4-methyl-N-phenylpyridine-3-sulfonamide]",,< 100 nM,100 to 1000 nM

# Further lines, results first:
IC50 (full-length human PHD3),IC50 (full-length human PHD1),IC50 (full-length human PHD2),Compound
100 to 1000 nM,< 100 nM,< 100 nM,"Cc1nn(-c2ccc(S(C)(=O)=O)cn2)c(O)c1-c1ccc(Cl)cc1 [Compound 1, 4-(4-chlorophenyl)-3-methyl-1-(5-(methylsulfonyl)pyridin-2-yl)-1H-pyrazol-5-ol]"
< 100 nM,< 100 nM,< 100 nM,"Cc1nn(-c2ccc(S(C)(=O)=O)cn2)c(O)c1-c1ccc(C#N)cc1 [Compound 3, 4-(5-hydroxy-3-methyl-1-(5-(methylsulfonyl)pyridin-2-yl)-1H-pyrazol-4-yl)benzonitrile]"
100 to 1000 nM,< 100 nM,< 100 nM,"Cc1nn(-c2ccc(S(=O)(=O)c3ccccc3)cn2)c(O)c1-c1ccc(C#N)cc1 [Compound 8, 4-(5-hydroxy-3-methyl-1-(5-(phenylsulfonyl)pyridin-2-yl)-1H-pyrazol-4-yl)benzonitrile]"
,< 100 nM,< 100 nM,"Cc1nn(-c2ccc(NS(=O)(=O)N(C)C)cn2)c(O)c1-c1ccc(C#N)cc1 [Compound 52, N-(6-(4-(4-cyanophenyl)-5-hydroxy-3-methyl-1H-pyrazol-1-yl)pyridin-3-yl)-N′-dimethylsulfamide]"
,< 100 nM,100 to 1000 nM,"Cc1nn(-c2ccc(-n3cccn3)cn2)c(O)c1-c1ccc(C#N)cc1 [Compound 63, 4-(1-(5-(1H-pyrazol-1-yl)pyridin-2-yl)-5-hydroxy-3-methyl-1H-pyrazol-4-yl)benzonitrile]"
,< 100 nM,< 100 nM,"Cc1nn(-c2ccc(NS(C)(=O)=O)cn2)c(O)c1-c1ccc(Cl)cc1 [Compound 67, N-(6-(4-(4-chlorophenyl)-5-hydroxy-3-methyl-1H-pyrazol-1-yl)pyridin-3-yl)methanesulfonamide]"
,< 100 nM,< 100 nM,"Cc1cc(-n2nc(C)c(-c3ccc(C#N)cc3)c2O)ncc1[S@@](=N)(=O)C1CC1 [Compound 68, (S)-4-(1-(5-(cyclopropanesulfonimidoyl)-4-methylpyridin-2-yl)-5-hydroxy-3-methyl-1H-pyrazol-4-yl)benzonitrile]"
,< 100 nM,< 100 nM,"Cc1cc(-n2nc(C)c(-c3ccc(C#N)cc3)c2O)ncc1[S@](=N)(=O)C1CC1 [Compound 69, (R)-4-(1-(5-(cyclopropanesulfonimidoyl)-4-methylpyridin-2-yl)-5-hydroxy-3-methyl-1H-pyrazol-4-yl)benzonitrile]"
,< 100 nM,< 100 nM,"Cc1cc(-n2nc(C)c(-c3ccc(C#N)cc3)c2O)ncc1S(=O)(=O)NC1CC1 [Compound 71, 6-(4-(4-cyanophenyl)-5-hydroxy-3-methyl-1H-pyrazol-1-yl)-N-cyclopropyl-4-methylpyridine-3-sulfonamide]"
